Laboratory results: patent publication US4080467A, “Pharmaceutical compositions comprising 1,3-dithiolan-2-ylidene malonate derivatives” (Nihon Nohyaku Co., Ltd., priority 1976, dated 1978)

Assays:
[1] = system: Acute Liver Damage associated with Centrilobular Necrosis (carbon tetrachloride); assay: Protective effect on acute liver damage associated with centrilobular necrosis (carbon tetrachloride model); format: in vivo, mice (four-week-old male, dd strain); details: 250 mg/kg oral 6 h before CCl4, average of 5 to 6 mice
[2] = Effect on glucose metabolism (blood sugar after glucose load); format: in vivo, mice; details: for Blood Sugar: 250 mg/kg oral 6 h before glucose 4.0 g/kg
Procedure: The test compounds dissolved in olive oil and administered orally at the dose of 250 mg/kg to the mice. After 6 hours, 4.0 g/kg of glucose was orally administered. The same amount of glucose was given to the control animals. 0.02 ml of blood was taken from caudal vein of the mice at 30, 60, 90 and 120 min. after glucose administration. Blood sugar was measured by the procedure of Somogyi-Nelson. Number of animals used was 5 to 6 mice for each treatment.

[3] = system: Chronic Liver Damage (thioacetamide); assay: Therapeutic effect on chronic liver damage (thioacetamide model), BSP test; format: in vivo, rats (Sprague Dawley strain); details: 12 times TAA 100 mg/kg, then diet + 0.2% compound
Procedure: In the tests of this Example, TAA was repeatedly administered to animals to prepare test animals suffering from somewhat chronic liver damages, and then the present compounds were administered thereto to know whether or not the compounds were effective against chronic hepatitis.
The degree of the liver damage and the therapeutic effects of the compounds were evaluated according to BSP test. The BSP test is a method in which BSP (sulfobromophthalein sodium), a dye known to be quickly metabolized in and excreted from the liver, is intravenously injected into animals and, after a definite period of time, the blood is taken out to measure the amount of BSP remaining in the plasma. In case the animals are suffering from the liver damage, the dye will remain, according to the degree of the damage, at the stage where a major portion of BSP is metabolized and excreted in the case of normal animals.
Five groups of rats (Sprague Dawley strain) were treated as follows:
Group A: The rats were orally administered with 100 mg/kg of thioacetamide,at 3 days intervals for 36 days (12 times of the administration), then were submitted for 10 days to a normal diet.
Group B: The rats were orally administered with 100 mg/kg of thioacetamide at 3 days intervals for 36 days (12 times of the administration), then were submitted for 10 days to the normal diet + 0.2% of compound 4.
Group C: The rats were orally administered with 100 mg/kg of thioacetamide at 3 days intervals for 36 days (12 times of the administration) then were submitted for 10 days to the normal diet + 0.2% of compound 2.
Group D: The rats were orally administered with 100 mg/kg of thioacetamide at 3 days intervals for 36 days (12 times of the administration) then were submitted for 10 days to the normal diet + 0.2% of anethol trithion.
Group E: The rats were submitted to the normal diet as the control.
Five rats were sacrified from each group at appropriate intervals for BSP (sulfobromophthalein) test, the results of which were shown as amounts (mg) of BSP remaining in 1 dl of plasma.

[4] = system: fatty liver (carbon tetrachloride); assay: Therapeutic effect on fatty liver (carbon tetrachloride model); format: in vivo, male rat (35 week-old, SD strain); details: for Degree of fatty liver (histopathological examination): 10 days, one symbol per animal
Procedure: Carbon tetrachloride also induces fatty liver, but the picture of disease differs from the case of ethionine-induced fatty liver. Carbon tetrachloride is generally considered to damage microsome and thereby to inhibit protein synthesis and induce fatty liver.
Carbon tetrachloride was subscutaneously administered to 35 week-old male rat (SD strain) for 4 days at the dose of 1 ml/kg. The treated animals were left for 3 days after the last administration to maximize the manifestation of fatty liver.
Administration of the compounds of this invention was commenced on the fourth day after the administration of carbon tetrachloride was completed. It was orally given everyday for 10 days at the dose of 50 or 250 mg/kg. On the 11th day, the animals were sacrificed. The therapeutic effect was evaluated by determining the content of lipid in the liver (triglyceride and total lipid) and examining the histopathological changes. Triglyceride and total lipid were determined colorimetrically by chromotropic acid method and Bragdon's oxidation method, respectively.
Indices for the histopathological change is as follows.

[5] = 50 mg/kg oral everyday for 10 days
[6] = 250 mg/kg oral everyday for 10 days

CC(C)OC(=O)C(C(=O)OC(C)C)=C1SCCS1 [Compound 4, Diisopropyl 1,3-dithiolan-2-yliden malonate]
p-GPT (plasma glutamic-pyruvic transaminase activity) ([1]; 24 h after CCl4, values over 1,000 regarded as 1,000): 23 Karmen units
Liver Damage Index ([1]; 0 normal, 2 slightly recognized, 4 clearly observable damage, 6 heavy damage): 0.2
Blood Sugar (percent of 0 min value) ([2]; 0 min): 100%
Blood Sugar ([2]; 0 min): 134 ± 24.8 mg/dL
Blood Sugar ([2]; 30 min): 258 ± 22.2 mg/dL
Blood Sugar ([2]; 60 min): 232 ± 13.0 mg/dL
Blood Sugar ([2]; 90 min): 190 ± 23.6 mg/dL
Blood Sugar ([2]; 120 min): 152 ± 23.4 mg/dL
Blood Sugar (percent of 0 min value) ([2]; 30 min): 192%
Blood Sugar (percent of 0 min value) ([2]; 60 min): 173%
Blood Sugar (percent of 0 min value) ([2]; 90 min): 142%
Blood Sugar (percent of 0 min value) ([2]; 120 min): 113%
Concentration of BSP in plasma ([3]; 2 Days): 7.6 ± 1.1 mg/dL
Concentration of BSP in plasma ([3]; 5 Days): 3.8 ± 0.5 mg/dL
Concentration of BSP in plasma ([3]; 10 Days): 0.3 ± 0.1 mg/dL
Total lipid [4, 5]: 107.6 ± 12.3 mg/g-liver
Triglyceride [4, 5]: 42.3 ± 6.3 mg/g-liver
Degree of fatty liver (histopathological examination) ([4]; 50 mg/kg oral): ± ± and ± ± ± + ±
Total lipid [4, 6]: 72.3 ± 9.6 mg/g-liver
Triglyceride [4, 6]: 23.6 ± 3.8 mg/g-liver
Degree of fatty liver (histopathological examination) ([4]; 250 mg/kg oral): - - ± ± - ±
